# Assays:
# [1] = biological target: T1, E. coli recombinant human 72 kD collagenase type IV (MMP-2), pAPMA activated (Homo sapiens, UniProt P08253); assay: gelatinase assay (3H-gelatin degradation), Example 9; assay type: biochemical; details: 100 ng activated enzyme, 4 hrs preincubation with inhibitor at 37° C., 3H-gelatin substrate; read-out: IC50, inhibition of collagenase type IV gelatinase activity
# T1 construct: made in house; host or cells: E. coli
# T1 sequence (P08253 110-660): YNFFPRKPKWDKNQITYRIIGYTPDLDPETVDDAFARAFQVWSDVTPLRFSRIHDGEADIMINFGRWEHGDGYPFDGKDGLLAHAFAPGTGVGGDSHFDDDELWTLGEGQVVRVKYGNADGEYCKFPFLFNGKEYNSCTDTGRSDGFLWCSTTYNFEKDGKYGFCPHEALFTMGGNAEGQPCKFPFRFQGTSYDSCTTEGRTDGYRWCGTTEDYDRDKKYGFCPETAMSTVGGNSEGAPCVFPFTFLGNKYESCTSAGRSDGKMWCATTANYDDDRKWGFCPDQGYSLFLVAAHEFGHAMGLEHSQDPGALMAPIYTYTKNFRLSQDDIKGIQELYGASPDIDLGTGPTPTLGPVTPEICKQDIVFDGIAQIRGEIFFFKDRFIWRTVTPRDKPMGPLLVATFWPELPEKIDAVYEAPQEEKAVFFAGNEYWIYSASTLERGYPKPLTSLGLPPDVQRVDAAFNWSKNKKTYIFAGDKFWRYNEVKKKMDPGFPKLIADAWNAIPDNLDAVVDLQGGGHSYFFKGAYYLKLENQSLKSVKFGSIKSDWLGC
# Text: Type IV collagenases are highly efficient in digesting gelatin. Inhibition of the gelatinase activity of human recombinant collagenase type IV was used as an initial assay for testing the bis(dioxopiperazine)s. The recombinant 72 kD collagenase IV used in the gelatinase assays was made in E. coli from a cDNA insert obtained from Dr. William Stetler-Stevenson (NCI). The protein runs at 72 kD on SDS-PAGE, has gelatinolytic activity in zymogram, is activated by pAPMA, is precipitated by a monoclonal anti-peptide antibody to the pro-region of the 72 kD enzyme, and is inhibited by TIMP-2. Rat tail ^3 H-collagen I (Dupont-NEN) is denatured to become gelatin by heating at 60° C. for 20 min. E. coli recombinant human 72 kD collagenase type IV is activated by incubation with 1 mM pAPMA for 1 hr. at 37° C. 100 ng of activated enzyme is added to each tube containing 50 mM Tris-HCl pH 7.5, 5 mM CaCl2 and 0.005% Brij-35 and pre-incubated with inhibitor or solvent control for 4 hrs. at 37° C. in a total of 25 μl. 10,000 cpm of ^3 H-gelatin substrate in 30 μl is added (final volume of 55 μl per sample) and the reaction mixture is incubated at 37° C. for 2 to 16 hrs. […] Enzyme activity is calculated from the radioactivity in the supernatant and activity of the compounds expressed as percent solvent control.
# [2] = system: HT-1080 cells (human fibrosarcoma); assay: in vitro invasion assay through matrigel (Transwell); assay type: cell-based
# Method: (§1) Razoxane, various bis(hydroxylated)(2,6-dioxopiperazine)s, and various hydrophobic analogs were tested in an in vitro assay for inhibition of tumor cell penetration of a reconstituted basement membrane, matrigel, isolated from the Englegbreth-Holm-Swarm (EHS) tumor (disclosed in Kleinman et al., Biochem. (1982), 24, 6188-6193) first described by Albini et al, Cancer Res. (1987) 47, 3234-3245. An 8 μm pore filter coated with matrigel separates a lower compartment containing a chemoattractant and an upper compartment containing the cells and test compound. In particular, the following compounds were tested: razoxane, (1α, 2α, 4α, 5α)-4,4'-(4,5-dihydroxy-1,2-cyclohexanediyl)bis(2,6-piperazinedione); (1α, 2α, 4β, 5β)-4,4'-(4,5-dihydroxy-1,2-cyclohexanediyl)bis(2,6-piperazinedione);(1β, 2α,4α,5α)-4,4'-(4,5-dihydroxy-1,2-cyclohexanediyl)bis(2,6-piperazinedione); (1β, 2α, 4α,5β)-4,4'-(4,5-dihydroxy-1,2-cyclohexanediyl)bis(2,6piperazinedione); (1α, 2β, 4α,5β)-4,4'-(4,5-dihydroxy-1,2cyclohexanediyl)bis(2,6-piperazinedione); N,N'-cyclohexane-1,2-diylbis[N(2-ethoxy-2-oxoethyl)]glycine; N,N'-4-cyclohexene-1,2-diylbis[N-(2-ethoxy-2-oxoethyl)-glycine ester; (3aα, 5β, 6β, 7aα)-4,4'-(hexahydro-2,2-dimethyl1,3-benzodioxole-5,6-diyl)bis(2,6-piperazinedione); (3aα, 5α, 6α, 7aα)-4,4'-(hexahydro-2,2-dimethyl-1,3-benzodioxole-5,6-diyl)bis(2,6- piperazinedione); (3aα, 5α, 6β, 7aα)-4,4'-(hexahydro-2,2-dimethyl-1,3-benzodioxole-5,6-diyl)bis-2,6- piperazinedione; (3aα, 5β, 6α, 7aβ)-4,4'-(hexahydro-2,2dimethyl-1,3-benzodioxole-5,6-diyl)bis(2,6-piperazinedione); and (3aα, 5α, 6β, 7aβ)-4,4'-(hexahydro-2,2-dimethyl-1,3-benzodioxole-5,6-diyl) bis(2,6piperazinedione). Metastatic cells are able to degrade the basement membrane protein barrier and migrate through the pores of the filter whereas non-metastatic cells remain on the upper surface. The cells that pass to the under side of the filter are then counted under a microscope. […] Variations of this assay have been used to correlate this in vitro invasion with metastatic potential in vivo (Albini et al. (Id.); Hendrix et al. Cancer Letters (1987); 38, 127-247; Repesh L. A., Invasion Metastasis (1989) 9, 192-208 to select for more highly invasive cells (Teranova et al., Proc. Nat. Acad. Sci., (1986), 83, 465, 464; Tullberg et al., Invasion Metastasis, (1989), 9, 13-26; Sefer et al., Biotechniques, (1990), 9, 324-331), and to test compounds for inhibition (Nakajima et al., Cancer Res. (1989), 49, 1698-1756).
# (§2) This method has been improved to increase the number of assays which may be performed and analyzed per day. In particular, such improvement comprises the use of disposable Transwells (Costar) units described by Repesh et al., Invasion Metastasis, (1989), 9, 192-208, which consist of an 8 μm pore filter attached to an insert that fits in a 24 well culture plate. Matrigel concentration is titrated from zero to complete inhibition of motility of each invasive cell line used in the assay and for each batch of matrigel. The matrigel concentration which yields 50% or greater inhibition of motility in a 6 hr assay (usually from 15 to 50 μg of protein per filter) is chosen for determination of invasion. Motility of cells through the 8 μm filters is not by passive diffusion since the pore size is smaller than the cells, and is determined in the same chamber in the absence of matrigel. Motility is stimulated two-fold by the presence of fibroblast conditioned medium (3T3 cells) as a chemoattractant (data not shown). The cell lines used are HT-1080, a human fibrosarcoma, and MDA-MB-231, a human breast carcinoma (both available from the American Type Tissue Culture). These cell lines express both the 72 kD and the 92 kD collagenase type IV as determined by zymography (data not shown).
# (§3) For inhibition studies, 5×10^5 cells are plated in 200 μl of DMEM+0.1% BSA+the inhibitor (or appropriate solvent control) into the upper chamber of the Transwell. […]
# [3] = system: MDA-MB-231 cells (human breast carcinoma); assay: as above; assay type: cell-based; details: preliminary screen
# Method: as §1, §2, §3
# V-79A fibroblasts = details: tissue culture; cited from earlier work
# metastases = details: in vivo; cited from earlier work
# B16-F10 melanoma cells = details: pretreatment of B16-F10 cells at 2, 20 and 100 μM; cited from earlier work
smiles,measurement,setting,value
CC1(C)O[C@H]2C[C@@H](N3CC(=O)NC(=O)C3)[C@H](N3CC(=O)NC(=O)C3)C[C@H]2O1 (relative stereo) [Compound 78],IC50,[1],45 µM
same,inhibition at 290 µM,"[2]; Homo sapiens, HT-1080, at 290 μM, 6 hour assay, read-out: maximum inhibition of invasion",25%
same,inhibition of invasion,[2]; preliminary screen,inhibit invasion
same,effect on cell motility,"[2]; preliminary screen, no matrigel",without inhibiting cell motility
same,inhibition of invasion,[3],inhibit invasion
same,effect on cell motility,[3]; no matrigel,without inhibiting cell motility
O=C1CN([C@@H]2C[C@H]2N2CC(=O)NC(=O)C2)CC(=O)N1 (relative stereo) [trans-15],cytotoxic activity,V-79A fibroblasts,inactive
same,effect on development of metastases,metastases,stimulates
O=C1CN2CCN3CC(=O)NC(=O)[C@H]3[C@@H]2C(=O)N1 (relative stereo) [trans-20],metastasis to the lungs after pretreatment of the cells,B16-F10 melanoma cells,significantly reduces the metastasis
"O=C1CN([C@@H]2C[C@@H]2N2CC(=O)NC(=O)C2)CC(=O)N1 [cis-16, cis-4,4'-(cyclopropanediyl) bis(2,6)dioxopiperazine]",effect on development of metastases,metastases,inhibits
O=C1CN2CCN3CC(=O)NC(=O)[C@H]3[C@H]2C(=O)N1 [cis-21],metastasis to the lungs after pretreatment of the cells,B16-F10 melanoma cells,ineffective

# From patent US5866570A, “Treatment of vascular leakage and related syndrome such as septic shock by administration of metalloproteinase inhibitors” (Wisconsin Alumni Research Foundation, priority 1994, dated 1999)
